Reference: paper PMC8600679, “Substituted Two- to Five-Ring Polycyclic Aromatic Compounds Are Potent Agonists of Atlantic Cod (Gadus morhua) Aryl Hydrocarbon Receptors Ahr1a and Ahr2a” (Environmental Science & Technology, 2021)
Read-outs that look alike come from different tables or passages of the source.

Experiments:
Atlantic cod Ahr1a = Atlantic cod Ahr1a (Gadus morhua, UniProt A0A6H1Z2L5); assay: cell-based; details: for Activation of Ahr1a (agonist or not): in vitro transactivation; for Ahr1a REP25: EC25 of TCDD divided by concentration of PAC giving 25% of TCDD response; for Efficacy compared to TCDD with Ahr1a: Welch's t-test, Supporting Table S6
Atlantic cod Ahr2a = target: T1, Atlantic cod Ahr2a (Gadus morhua, UniProt A0A6H1Z3G8); assay: cell-based; details: for Activation of Ahr2a (agonist or not): in vitro transactivation; for Ahr2a REP25: EC25 of TCDD divided by concentration of PAC giving 25% of TCDD response
T1 sequence (A0A6H1Z3G8 1-1127): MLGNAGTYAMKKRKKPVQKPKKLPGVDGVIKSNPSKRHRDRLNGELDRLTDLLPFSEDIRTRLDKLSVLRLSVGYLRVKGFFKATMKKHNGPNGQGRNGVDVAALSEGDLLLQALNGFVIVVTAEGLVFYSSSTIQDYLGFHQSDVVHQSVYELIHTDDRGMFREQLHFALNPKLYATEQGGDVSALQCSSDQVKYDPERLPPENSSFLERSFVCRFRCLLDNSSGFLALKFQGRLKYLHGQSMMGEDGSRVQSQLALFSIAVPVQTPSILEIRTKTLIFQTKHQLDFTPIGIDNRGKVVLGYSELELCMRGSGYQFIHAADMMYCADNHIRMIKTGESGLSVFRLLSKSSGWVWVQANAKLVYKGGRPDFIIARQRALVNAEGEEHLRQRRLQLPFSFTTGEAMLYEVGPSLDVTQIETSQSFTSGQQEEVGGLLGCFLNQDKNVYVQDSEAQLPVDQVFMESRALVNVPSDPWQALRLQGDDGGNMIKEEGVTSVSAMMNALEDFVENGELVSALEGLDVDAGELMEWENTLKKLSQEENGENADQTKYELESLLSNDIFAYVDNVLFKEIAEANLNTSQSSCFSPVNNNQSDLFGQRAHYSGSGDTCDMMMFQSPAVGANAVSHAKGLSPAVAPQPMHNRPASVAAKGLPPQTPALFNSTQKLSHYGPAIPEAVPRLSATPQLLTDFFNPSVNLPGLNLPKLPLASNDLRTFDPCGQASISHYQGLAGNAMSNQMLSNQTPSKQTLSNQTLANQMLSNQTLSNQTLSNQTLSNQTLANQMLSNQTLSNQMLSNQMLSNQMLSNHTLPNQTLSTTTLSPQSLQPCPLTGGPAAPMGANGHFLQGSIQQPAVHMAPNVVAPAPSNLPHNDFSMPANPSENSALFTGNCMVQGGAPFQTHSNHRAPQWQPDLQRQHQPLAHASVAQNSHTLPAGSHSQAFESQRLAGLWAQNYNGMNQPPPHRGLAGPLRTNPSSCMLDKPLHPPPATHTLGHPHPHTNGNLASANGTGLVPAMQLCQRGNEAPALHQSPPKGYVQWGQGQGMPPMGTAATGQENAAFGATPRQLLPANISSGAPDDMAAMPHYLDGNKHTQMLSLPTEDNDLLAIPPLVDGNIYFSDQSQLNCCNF

[1] = percent of maximum efficacy determined for TCDD, COS-7 cells, 24 h exposure, None = no agonistic response significantly different from solvent
[2] = COS-7, Supplementary Table S5, read-out: Efficacy (Emax, %) Ahr1a
[3] = percent of maximum efficacy determined for TCDD, COS-7 cells, 24 h exposure, None = no agonistic response significantly different from solvent, read-out: Ahr1a Relative Emax (%)
[4] = COS-7, Supplementary Table S5, read-out: Efficacy (Emax, %) Ahr2a
[5] = COS-7 cells, 24 h exposure, read-out: Ahr2a EC50
[6] = percent of maximum efficacy determined for TCDD, COS-7 cells, 24 h exposure, None = no agonistic response significantly different from solvent, read-out: Ahr2a Relative Emax (%)
[7] = COS-7 cells, 24 h exposure, read-out: Ahr1a EC50
[8] = COS-7, curve did not reach a plateau: relative response at the highest tested concentration, percent of TCDD maximum, read-out: Ahr2a Relative Emax (%), marked *

Sequence of Atlantic cod Ahr1a (A0A6H1Z2L5 1-957): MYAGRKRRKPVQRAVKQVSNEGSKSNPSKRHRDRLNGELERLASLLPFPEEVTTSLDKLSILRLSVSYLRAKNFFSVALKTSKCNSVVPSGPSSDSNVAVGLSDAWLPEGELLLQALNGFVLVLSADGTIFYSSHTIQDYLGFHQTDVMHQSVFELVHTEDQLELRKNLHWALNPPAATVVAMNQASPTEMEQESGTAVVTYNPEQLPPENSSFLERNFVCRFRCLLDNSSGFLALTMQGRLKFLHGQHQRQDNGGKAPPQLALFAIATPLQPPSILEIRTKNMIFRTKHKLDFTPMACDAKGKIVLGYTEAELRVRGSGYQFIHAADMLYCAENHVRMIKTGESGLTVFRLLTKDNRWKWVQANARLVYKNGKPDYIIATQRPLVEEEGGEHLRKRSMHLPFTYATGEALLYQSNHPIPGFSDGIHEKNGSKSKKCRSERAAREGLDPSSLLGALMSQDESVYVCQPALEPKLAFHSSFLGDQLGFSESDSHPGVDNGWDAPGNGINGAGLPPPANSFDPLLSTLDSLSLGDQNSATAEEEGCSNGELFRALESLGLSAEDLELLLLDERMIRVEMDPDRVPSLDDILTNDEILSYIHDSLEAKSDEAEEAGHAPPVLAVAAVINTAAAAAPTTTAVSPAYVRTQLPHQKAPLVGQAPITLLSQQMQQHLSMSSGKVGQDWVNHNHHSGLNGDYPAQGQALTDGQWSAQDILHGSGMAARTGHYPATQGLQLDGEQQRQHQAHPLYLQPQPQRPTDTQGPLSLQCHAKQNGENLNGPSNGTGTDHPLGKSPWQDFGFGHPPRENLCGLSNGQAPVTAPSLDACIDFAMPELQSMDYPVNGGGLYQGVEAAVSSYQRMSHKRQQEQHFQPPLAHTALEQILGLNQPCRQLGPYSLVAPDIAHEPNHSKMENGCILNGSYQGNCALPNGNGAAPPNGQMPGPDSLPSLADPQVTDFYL
Sequence of Atlantic cod Ahr1a (A0A8C5CZZ9 1-645 partner): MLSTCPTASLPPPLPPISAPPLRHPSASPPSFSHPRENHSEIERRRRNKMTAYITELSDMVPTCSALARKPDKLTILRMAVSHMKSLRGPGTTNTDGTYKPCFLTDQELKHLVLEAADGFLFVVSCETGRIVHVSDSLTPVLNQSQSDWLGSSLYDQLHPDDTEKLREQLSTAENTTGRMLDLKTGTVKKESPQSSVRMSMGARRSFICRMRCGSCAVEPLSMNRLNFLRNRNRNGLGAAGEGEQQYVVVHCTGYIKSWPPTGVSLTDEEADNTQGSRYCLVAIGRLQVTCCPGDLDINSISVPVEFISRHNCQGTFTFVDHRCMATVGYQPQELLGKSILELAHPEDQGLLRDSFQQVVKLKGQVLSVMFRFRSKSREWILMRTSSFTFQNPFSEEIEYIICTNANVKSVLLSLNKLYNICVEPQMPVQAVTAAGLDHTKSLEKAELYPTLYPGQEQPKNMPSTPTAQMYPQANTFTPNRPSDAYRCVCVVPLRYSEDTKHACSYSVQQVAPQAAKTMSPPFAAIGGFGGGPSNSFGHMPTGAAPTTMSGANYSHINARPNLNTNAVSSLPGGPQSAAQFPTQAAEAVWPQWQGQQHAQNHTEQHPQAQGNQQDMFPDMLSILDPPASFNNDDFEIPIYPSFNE

Cc1ccc2c(ccc3c(C)cccc32)c1 [1,7-DMP, 1,7-Dimethylphenanthrene]
Activation of Ahr1a (agonist or not) (Atlantic cod Ahr1a): did not activate
Ahr1a Relative Emax (%) (Atlantic cod Ahr1a; [1]): None
Activation of Ahr2a (agonist or not) (Atlantic cod Ahr2a): did not activate
Ahr2a Relative Emax (%) (Atlantic cod Ahr2a; [1]): None

c1ccc2c(c1)cc1ccc3cccc4ccc2c1c34 [BAP, Benzo[a]pyrene]
EC50 (Atlantic cod Ahr1a; Ahr1a EC50 (nM), COS-7 cells, 24 h exposure): 25.8 nM
Emax (Atlantic cod Ahr1a; COS-7, read-out: Ahr1a Relative Emax (%)): 107%
Emax (Atlantic cod Ahr1a; COS-7, read-out: Efficacy (Emax, %) Ahr1a): 107%
Ahr1a REP25 (Atlantic cod Ahr1a): 0.0956
Efficacy compared to TCDD with Ahr1a (Atlantic cod Ahr1a): higher efficacies (superefficacies) than TCDD
Activation of Ahr1a (agonist or not) (Atlantic cod Ahr1a): agonist for both Ahrs
EC50 (Atlantic cod Ahr2a; Ahr2a EC50 (nM), COS-7 cells, 24 h exposure): 6.8 nM
fold higher REP25 with Ahr2a compared to Ahr1a (Atlantic cod Ahr2a; Ahr2a versus Ahr1a): 5- to 10 fold
Emax (Atlantic cod Ahr2a; COS-7, read-out: Ahr2a Relative Emax (%)): 103%
Emax (Atlantic cod Ahr2a; COS-7, read-out: Efficacy (Emax, %) Ahr2a): 103%
Activation of Ahr2a (agonist or not) (Atlantic cod Ahr2a): agonist for both Ahrs

c1ccc2c(c1)sc1ccccc12 [DBT, Dibenzothiophene]
Activation of Ahr1a (agonist or not) (Atlantic cod Ahr1a): did not activate
Ahr1a Relative Emax (%) (Atlantic cod Ahr1a; [1]): None
Activation of Ahr2a (agonist or not) (Atlantic cod Ahr2a): did not activate
Ahr2a Relative Emax (%) (Atlantic cod Ahr2a; [1]): None

CCc1ccc2ccc3ccccc3c2c1 [3-EP, 3-Ethylphenanthrene]
Activation of Ahr1a (agonist or not) (Atlantic cod Ahr1a): did not activate
Ahr1a Relative Emax (%) (Atlantic cod Ahr1a; [1]): None
Activation of Ahr2a (agonist or not) (Atlantic cod Ahr2a): did not activate
Ahr2a Relative Emax (%) (Atlantic cod Ahr2a; [1]): None

c1ccc2c(c1)Cc1ccccc1-2 [FLU, Fluorene]
Activation of Ahr1a (agonist or not) (Atlantic cod Ahr1a): did not activate
Ahr1a Relative Emax (%) (Atlantic cod Ahr1a; [1]): None
Activation of Ahr2a (agonist or not) (Atlantic cod Ahr2a): did not activate
Ahr2a Relative Emax (%) (Atlantic cod Ahr2a; [1]): None

Cc1ccc2ccc3c4ccccc4ccc3c2c1 [3-MC, 3-Methylchrysene]
Emax (Atlantic cod Ahr1a; [2]): 110%
Ahr1a REP25 (Atlantic cod Ahr1a): 0.0413
EC50 (Atlantic cod Ahr1a; Supplementary Table S5, read-out: Potency (EC50, nM) Ahr1a): 101 nM
Efficacy compared to TCDD with Ahr1a (Atlantic cod Ahr1a): efficacies similar to that of TCDD
Emax (Atlantic cod Ahr1a; [3]): 111%
Emax (Atlantic cod Ahr2a; [4]): 102%
EC50 (Atlantic cod Ahr2a; [5]): 54 nM
Ahr2a REP25 (Atlantic cod Ahr2a): 0.167
Emax (Atlantic cod Ahr2a; [6]): 102%

Cc1ccc2c(ccc3c4ccccc4ccc23)c1 [2-MC, 2-Methylchrysene]
Emax (Atlantic cod Ahr1a; [2]): 125%
EC50 (Atlantic cod Ahr1a; [7]): 22 nM
Ahr1a REP25 (Atlantic cod Ahr1a): 0.324
Efficacy compared to TCDD with Ahr1a (Atlantic cod Ahr1a): higher efficacies (superefficacies) than TCDD
Emax (Atlantic cod Ahr1a; [3]): 125%
Emax (Atlantic cod Ahr2a; [4]): 127%
EC50 (Atlantic cod Ahr2a; [5]): 41.8 nM
Efficacy compared to TCDD via Ahr2a (Atlantic cod Ahr2a; Welch's t-test, Supporting Table S6): superefficacies
Emax (Atlantic cod Ahr2a; [6]): 127%

O[C@@H]1C=Cc2c(ccc3ccccc23)[C@H]1O [R,R-1,2-DHP, (1R,2R)-1.2-Dihydrophenanthrene-1,2-diol]
Emax (Atlantic cod Ahr1a; COS-7, curve did not reach a plateau: relative response at the highest tested concentration, percent of TCDD maximum, read-out: Ahr1a Relative Emax (%), marked *): 36.1%
Ahr1a REP25 (Atlantic cod Ahr1a): 0.00002
Activation of Ahr1a (agonist or not) (Atlantic cod Ahr1a): activated both Ahr1a and Ahr2a
Emax (Atlantic cod Ahr2a; [8]): 25.9%
Ahr2a REP25 (Atlantic cod Ahr2a): 0.000044
Activation of Ahr2a (agonist or not) (Atlantic cod Ahr2a): activated both Ahr1a and Ahr2a

Oc1cccc2ccc3c4ccccc4ccc3c12 [4-COH, Chrysene-4-ol]
EC50 (Atlantic cod Ahr1a; [7]): 1340 nM
Ahr1a REP25 (Atlantic cod Ahr1a): 0.00105
Efficacy compared to TCDD with Ahr1a (Atlantic cod Ahr1a): efficacies similar to that of TCDD
Emax (Atlantic cod Ahr1a; [3]): 91.7%
Emax (Atlantic cod Ahr2a; [8]): 98.8%
Ahr2a REP25 (Atlantic cod Ahr2a): 0.0016
EC50 (Atlantic cod Ahr2a; Supplementary Table S5, read-out: Potency (EC50, nM) Ahr2a): 11000 nM

Cc1ccc2c(ccc3cc(C)ccc32)c1 [2,7-DMP, 2,7-Dimethylphenanthrene]
Activation of Ahr1a (agonist or not) (Atlantic cod Ahr1a): did not activate
Ahr1a Relative Emax (%) (Atlantic cod Ahr1a; [1]): None
Activation of Ahr2a (agonist or not) (Atlantic cod Ahr2a): did not activate
Ahr2a Relative Emax (%) (Atlantic cod Ahr2a; [1]): None
